Experimental data: ChEMBL document CHEMBL4765292, “Flexible diaminodihydrotriazine inhibitors of Plasmodium falciparum dihydrofolate reductase: Binding strengths, modes of binding and their antimalarial activities” (Eur J Med Chem, 2020)

Experiments:
[1] = Inhibition of Plasmodium falciparum DHFR A16V/S108T mutant expressed in Escherichia coli BL21 using DHF as substrate by spectrophotometric analysis
[2] = system: Plasmodium falciparum; experiment: Antimalarial activity against Plasmodium falciparum CsI-2 harboring DHFR C59R/S108N/I164L mutant infected in human erythrocytes assessed as reduction in [3H]-hypoxanthine incorporation pretreated for 20 hrs followed by [3H]-hypoxanthine addition measured after 20 hrs by radioactivity method; assay type: functional, organism-based; details: CsI-2, Erythrocyte
[3] = Inhibition of Plasmodium falciparum DHFR C59R/S108N/I164L mutant expressed in Escherichia coli BL21 using DHF as substrate by spectrophotometric analysis
[4] = Inhibition of Plasmodium falciparum DHFR […] mutant expressed in Escherichia coli BL21 using DHF as substrate by spectrophotometric analysis
[5] = system: Plasmodium falciparum; experiment: Antimalarial activity against Plasmodium falciparum V1/S harboring DHFR N51I/C59R/S108N/I164L mutant infected in human erythrocytes assessed as reduction in [3H]-hypoxanthine incorporation pretreated for 20 hrs followed by [3H]-hypoxanthine addition measured after 20 hrs by radioactivity method; assay type: functional, organism-based; details: Erythrocyte
[6] = Inhibition of Plasmodium falciparum DHFR expressed in Escherichia coli BL21 using DHF as substrate by spectrophotometric analysis
[7] = system: Plasmodium falciparum; experiment: Antimalarial activity against Plasmodium falciparum W2 harboring DHFR N51I/C59R/S108N mutant infected in human erythrocytes assessed as reduction in [3H]-hypoxanthine incorporation pretreated for 20 hrs followed by [3H]-hypoxanthine addition measured after 20 hrs by radioactivity method; assay type: functional, organism-based; details: W2, Erythrocyte
[8] = system: Plasmodium falciparum; experiment: Antimalarial activity against Plasmodium falciparum TM4/8.2 infected in human erythrocytes assessed as reduction in [3H]-hypoxanthine incorporation pretreated for 20 hrs followed by [3H]-hypoxanthine addition measured after 20 hrs by radioactivity method; assay type: functional, organism-based
[9] = Inhibition of Plasmodium falciparum DHFR N51I/C59R/S108N/I164L mutant expressed in Escherichia coli BL21 using DHF as substrate by spectrophotometric analysis
[10] = system: Plasmodium falciparum; experiment: Antimalarial activity against Plasmodium falciparum K1CB1 harboring DHFR […] mutant infected in human erythrocytes assessed as reduction in [3H]-hypoxanthine incorporation pretreated for 20 hrs followed by [3H]-hypoxanthine addition measured after 20 hrs by radioactivity method; assay type: functional, organism-based; details: K1CB1, Erythrocyte
[11] = Inhibition of Plasmodium falciparum DHFR N51I/C59R/S108N mutant expressed in Escherichia coli BL21 using DHF as substrate by spectrophotometric analysis
[12] = system: Plasmodium falciparum; experiment: Antimalarial activity against Plasmodium falciparum T9/94 RC17 harboring DHFR A16V/S108T mutant infected in human erythrocytes assessed as reduction in [3H]-hypoxanthine incorporation pretreated for 20 hrs followed by [3H]-hypoxanthine addition measured after 20 hrs by radioactivity method; assay type: functional, organism-based; details: T9/94 RC17, Erythrocyte

Row | SMILES | Ki [1] | IC50 [2] | Ki [3] | Ki [4] | IC50 [5] | Ki [6] | IC50 [7] | IC50 [8] | Ki [9] | IC50 [10] | Ki [11] | IC50 [12]
1 | NC1=NC(c2ccccc2)N(OCCCOc2ccc(Cl)cc2)C(N)=N1 (centres undefined) | 1.6 nM | 0.72 µM | 0.8 nM | 1.1 nM | 2.3 µM | 0.4 nM | 0.1 µM | 12 nM | 0.5 nM | 85 nM | 0.8 nM | 0.58 nM
2 | CC1(C)N=C(N)N=C(N)N1OCCOc1cc(Cl)c(Cl)cc1Cl | 6.1 nM | 3.3 µM | 11 nM | 1.2 nM | 11.5 µM | 1 nM | 3.01 µM | 750 nM | 16 nM | 490 nM | 2.2 nM | –
3 | CC1(C)N=C(N)N=C(N)N1OCCCN(Cc1ccccc1)c1ccc(Cl)cc1 | 6.1 nM | 3.1 µM | 2.3 nM | 0.8 nM | 3.6 µM | 0.6 nM | 0.51 µM | 31 nM | 2 nM | 400 nM | 1.1 nM | 49 nM
4 | NC1=NC(c2ccccc2)N(OCCc2ccccc2)C(N)=N1 (centres undefined) | 8.3 nM | 20.5 µM | 13 nM | 3.3 nM | 24.7 µM | 1.4 nM | 16.8 µM | 80 nM | 14 nM | 16200 nM | 4.1 nM | 3.1 nM
5 | CC1(C)N=C(N)N=C(N)N1OCCCNC(=O)c1ccccc1 | 14.7 nM | 2.4 µM | 6.9 nM | 2.6 nM | 5.4 µM | 1.4 nM | 0.23 µM | 29 nM | 13.8 nM | 230 nM | 2.6 nM | 40 nM
6 | CCN(CCCON1C(N)=NC(N)=NC1(C)C)c1ccc(Cl)c(Cl)c1 | 2.8 nM | 0.046 µM | 2.2 nM | 2.1 nM | 2.9 µM | 1.4 nM | 0.071 µM | 26 nM | 3.9 nM | 35 nM | 2 nM | –
7 | CC1(C)N=C(N)N=C(N)N1OCCNS(=O)(=O)c1ccc(Cl)cc1 | 133 nM | 25.3 µM | 114 nM | 4.7 nM | > 50 µM | 1.3 nM | 12.7 µM | 1200 nM | 127 nM | 5900 nM | 10.2 nM | 3800 nM
8 | CC1(C)N=C(N)N=C(N)N1OCCCOCc1ccccc1 | 5.3 nM | 0.4 µM | 4.2 nM | 1.3 nM | 1.21 µM | 0.6 nM | 0.051 µM | 14 nM | 4.1 nM | 48 nM | 1.2 nM | –
9 | CC1(C)N=C(N)N=C(N)N1OCCCNS(=O)(=O)c1ccccc1 | 61 nM | 73.4 µM | 51 nM | 4.3 nM | 61.9 µM | 0.8 nM | 15.2 µM | 51 nM | 184 nM | 5400 nM | 10 nM | 2200 nM
10 | NC1=NC(c2ccccc2)N(OCCCc2ccccc2)C(N)=N1 (centres undefined) | 7 nM | 4.5 µM | 3.2 nM | 0.9 nM | 4.8 µM | 2.2 nM | 0.13 µM | 20 nM | 3.6 nM | 190 nM | 0.6 nM | 0.52 nM
11 | CC1(C)N=C(N)N=C(N)N1OCc1ccccc1 | 46 nM | 47.6 µM | 30 nM | 2.8 nM | > 100 µM | 0.4 nM | 4.5 µM | 2670 nM | 45 nM | 1800 nM | 5.9 nM | –
12 | CC1(C)N=C(N)N=C(N)N1OCCCCOCc1ccccc1 | 10.5 nM | 4.8 µM | 12.2 nM | 2.5 nM | 20.8 µM | 1 nM | 3.2 µM | 400 nM | 18.2 nM | 2400 nM | 2.9 nM | –
13 | Cc1ccc(S(=O)(=O)NCCON2C(N)=NC(N)=NC2(C)C)cc1 | 308 nM | 63.3 µM | 139 nM | 6.4 nM | 62.2 µM | 1.8 nM | 21.5 µM | 2000 nM | 229 nM | 9700 nM | 10.2 nM | 18700 nM
14 | CC1(C)N=C(N)N=C(N)N1OCC(=O)NCc1ccc(Cl)cc1 | 72.2 nM | 3.6 µM | 13 nM | 3.6 nM | 11 µM | 1.7 nM | 2.5 µM | 2400 nM | 16.3 nM | 530 nM | 4.3 nM | 430 nM
15 | CC1(C)N=C(N)N=C(N)N1OCCCN(Cc1ccccc1)c1ccc(Cl)c(Cl)c1 | 5.3 nM | 5 µM | 2.7 nM | 1.6 nM | 5.3 µM | 1 nM | 2.1 µM | 150 nM | 1.7 nM | 2300 nM | 1.2 nM | 290 nM
16 | CC1(C)N=C(N)N=C(N)N1OCCCN(Cc1ccccc1)Cc1ccccc1 | 6.3 nM | 0.5 µM | 3.1 nM | 2.9 nM | 5.4 µM | 1.5 nM | 0.5 µM | 22 nM | 5.4 nM | 350 nM | 3.1 nM | 25 nM
17 | CC1(C)N=C(N)N=C(N)N1OCC(=O)Nc1ccccc1 | 131 nM | 17.1 µM | 16.4 nM | 5.2 nM | 18.1 µM | 3.7 nM | 13.9 µM | 1900 nM | 17.8 nM | 7200 nM | 6.7 nM | 5200 nM
18 | CC1(C)N=C(N)N=C(N)N1OCCNS(=O)(=O)c1ccccc1 | 215 nM | 76.5 µM | 169 nM | 4.8 nM | 77.4 µM | 2.7 nM | 26 µM | 4400 nM | 234 nM | 10000 nM | 5.8 nM | 15000 nM
19 | CC1(C)N=C(N)N=C(N)N1OCCCSC1CCCCC1 | 3 nM | 0.26 µM | 1.5 nM | 1.1 nM | 3.5 µM | 0.6 nM | 0.19 µM | 3.3 nM | 1.4 nM | 260 nM | 0.8 nM | 6.9 nM
20 | CC1(C)N=C(N)N=C(N)N1OCCCNc1ccccc1 | 5.7 nM | 3.2 µM | 1.8 nM | 0.8 nM | 2.3 µM | 0.6 nM | 0.3 µM | 1850 nM | 4.8 nM | 240 nM | 1.1 nM | –
21 | CC1(C)N=C(N)N=C(N)N1OCCNS(=O)(=O)c1ccc([N+](=O)[O-])cc1 | 222 nM | 3.5 µM | 229 nM | 9.85 nM | 3.5 µM | 3.2 nM | 3.6 µM | 2200 nM | 235 nM | 3100 nM | 17.9 nM | 3500 nM
22 | CC1(C)N=C(N)N=C(N)N1OCC(=O)Nc1ccc(Cl)cc1 | 56.8 nM | 7.9 µM | 8.8 nM | 3.8 nM | 16.7 µM | 2.3 nM | 3.7 µM | 3000 nM | 9.7 nM | 4000 nM | 4 nM | 5000 nM
23 | NC1=NC(c2ccccc2)N(CCCOc2cc(Cl)c(Cl)cc2Cl)C(N)=N1 (centres undefined) | 7.3 nM | 3.1 µM | 5.6 nM | 2.1 nM | 2.6 µM | 1.2 nM | 2.3 µM | 750 nM | 5.7 nM | 2900 nM | 2.6 nM | 18 nM
24 | CC1(C)N=C(N)N=C(N)N1c1ccc(Cl)cc1 [CYCLOGUANIL] | 1310 nM | 37.9 µM | 285 nM | 43.2 nM | > 100 µM | 1.5 nM | 6.08 µM | 37 nM | 421 nM | 2400 nM | 31.4 nM | 3700 nM
25 | Cc1ccc(S(=O)(=O)NCCCON2C(N)=NC(N)=NC2(C)C)cc1 | 186 nM | 31.2 µM | 73 nM | 4 nM | 23.5 µM | 1 nM | 15.1 µM | 440 nM | 143 nM | 9600 nM | 7.5 nM | 3900 nM
